We go through three compounds from US20030228675A1, “ATM related kinase ATX, nucleic acids encoding same and methods of use” (priority 2002, published 2003).

Series [1] relates to U2OS cells. The experiment in a line: Clonogenic survival assay of oligonucleotide-transfected cells. The format is cell-based, human. The following applies: non-irradiated, 10 days in culture. How it is done: To address concerns related to potential non-specific effects of ATXKI expression on cellular functions, an antisense oligonucleotide-based approach to reduce the level of ATX expression in U2OS cells was developed. The cells were mock transfected, or transfected with sense (S) or antisense (AS) oligonucleotides, and then treated for 24 h with various genotoxic agents. The cells were then trypsinized and replated, and clonogenic survival was analyzed after 10 days in culture. The results obtained with AS-treated cells were strikingly similar to those obtained with the ATXKI-expressing cells (FIGS. 2A-C). While transfection of U2OS cells with the S oligonucleotide reduced the basal level of colony outgrowth by 25%, treatment with the AS oligonucleotide decreased basal clonogenic activity by 75% (FIG. 2C, right panel). […] The reduction in ATX protein caused by AS treatment ranged from 50-90% in over 10 independent trials.
To prepare recombinant HA-tagged ATX and ATM proteins, HEK 293T cells were plated onto 60-mm dishes (9×10^5 cells per dish), and were transfected with 5 μg pcDNA3.1 (empty vector), HA-ATXWT, HA-ATXKI, or HA-ATMWT plasmid DNAS. Transfections were performed with the Fugene 6 transfection reagent (Roche), according to the manufacturer's instructions. For NMD assays (see Example 9, below), U2OS cells were seeded onto 100 mm dishes (1×10^6 cells per dish). […]
U2OS cells were seeded into 60 mm dishes (1×10^5 cells per dish) in complete medium. […] To quantitate the outgrowth of drug-resistant cells, the Coomassie Blue-bound protein was solubilized at 37° C. with 0.1 M NaOH, and the soluble material was analyzed by absorbance spectroscopy at a wavelength of 590 nm. […] Drug-resistant colonies were stained with Coomassie Blue after 10 days in culture, and the samples were analyzed with Image Pro Plus software to quantitate cell density. […]

In series [2] the test system is U2OS cells. The experiment in a line: Cell-cycle distribution by flow cytometry. In kind it is cell-based, human. The note with it: 24 h post-irradiation. How it is done: Since p53 plays a central role in activation of the G1 checkpoint, and influences S, G2, and M checkpoints as well (Giaccia and Kastan, Genes & Development 12:2973-2983 (1998); Ko and Prives, supra, 1996), a functional deficiency of ATX might alter the cell-cycle arrest responses to IR and other genotoxic agents. To test this possibility, U2OS cells were pre-treated with S or AS oligonucleotides, exposed to IR, and cell-cycle distributions at 24 h post-irradiation were determined.
The G2 checkpoint inhibitor was added to the culture medium at 8 h prior to harvest for determination of cell-cycle distributions (FIG. 3E, left panel), and immunoblotting for ATX expression (right panel).

The test system of series [3] is p53. In words: Stress-induced p53 Ser-15 phosphorylation and p53 accumulation by immunoblotting. In kind it is cell-based, human. The note with it: U2OS treated with the drug. How it is done: To prepare recombinant HA-tagged ATX and ATM proteins, HEK 293T cells were plated onto 60-mm dishes (9×10^5 cells per dish), and were transfected with 5 μg pcDNA3.1 (empty vector), HA-ATXWT, HA-ATXKI, or HA-ATMWT plasmid DNAS. Transfections were performed with the Fugene 6 transfection reagent (Roche), according to the manufacturer's instructions. For NMD assays (see Example 9, below), U2OS cells were seeded onto 100 mm dishes (1×10^6 cells per dish). After 20 h, cells were transfected with 1.5 μg of pmCMV-Gl test plasmid, either Norm or 39Ter (Ishigaki et al., 2001); 1.5 μg of phCMV-MUP reference plasmid (Ishigaki et al., Cell 106:607-617 (2001)); and 7 μg of empty plasmid (pcDNA 3.1), plasmids encoding HA-ATMWT, HA-ATMKI, HA-ATXWT or HA-ATXKI. For antisense transfection experiments, U2OS cells were seeded onto 60 mm dishes (1×10^5 cells per dish) in complete medium supplemented with penicillin/streptomycin. After 30 h, cells were either mock transfected or transfected with sense (S) or antisense (AS) phosphorothioate oligonucleotides (Genset Oligos, La Jolla, Calif.). The S oligonucleotide spans ATX nucleotides 210-229 (5′-[…]-3′), and the AS oligonucleotide is complementary to this sequence (5′-[…]-3′). The cells were transfected with oligonucleotides at final concentrations of 8 μg/ml, with Fugene 6:DNA ratio of 1.6:1. Forty-eight hours after transfection, dishes were exposed to IR, UV-B, or 5-FU, and then harvested for immunoblotting, cell-cycle distribution, or cell survival assays. To examine ATX protein levels in oligonucleotide-treated cells, whole cell extracts were resolved by SDS-PAGE and immunoblotted with α-ATX Ab-1. When oligonucleotide-transfected cells were used for NMD assays, U2OS cells were seeded in culture dishes as described above. The cells were transfected using the Fugene reagent, with 1.5 μg of pmCMV-Gl test plasmid, 0.7 μg of phCMV-MUP reference plasmid, and 24 μg of S or AS oligonucleotide.
A major mediator of stress-induced signaling in mammalian cells is the tumor suppressor protein, p53 (Ko and Prives, Genes and Development 10:1054-1072, (1996); Ryan et al., Curr. Opin. Cell Biol. 13:332-337 (2001)). ATX phosphorylates p53 on Ser-15 (FIG. 1C), a site implicated in the regulation of p53 stability and transcriptional activity (Dumaz and Meek, Curr. Opin. Cell Biol. 13:225-231 (1999); Zhang and Xiong, Science 292:1910-1915 (2001)). Therefore, the possibility that these two proteins are functionally linked during cellular stress responses was investigated. U2OS cells were transiently transfected with a HA-ATXWT or HA-ATXKI expression plasmid, together with a GFP-encoding plasmid to allow for FACS-based enrichment of the transfected cells. The GFP+ cells were then examined for IR-induced stabilization of p53, as well as for specific phosphorylation of this protein on Ser-15. […] In contrast, overexpression of ATXWT enhanced both of these responses in cells exposed to IR.
The recognition of UV light-induced DNA damage occurs primarily during S phase, when pyrimidine dimers and other bulky lesions interfere with replication fork progression (Friedberg, DNA Repair and Mutagenesis (Washington, D.C., ASM Press) (1995); Lindahl and Wood, Cell 103:1121-1131 (1999)).
In order to further define the potential linkage between DNA replicational stress and ATX, the response of AS-treated cells to 5-fluorouracil (5-FU), an S-phase specific cytotoxic agent was examined (Danenberg et al., Seminars in Oncology 26:621-631 (1999); Grem, Investigational New Drugs 18:299-313 (2000)).
Changes in phosphorylation at Ser-15 are typically accompanied by alterations in the expression of the p53 protein, which complicates the interpretation of results obtained by immunoblotting of whole cell extracts with phospho-Ser-15-specific antibodies. […]
For orientation: Immunoblotting shows a protein as a band on a membrane.

Series [4] has as its target T1, ATX (Homo sapiens, UniProt Q96Q15). In words: Immune complex kinase assay, immunoprecipitated HA-ATXWT pretreated with drug, GST-p53 1-70 phosphorylation. The arrangement: was used to isolate a full-length cDNA encoding a novel member of the PIKK family, termed ATX; made in house. The note with it: pretreatment of immunoprecipitated HA-ATXWT; GST-p53 1-70 substrate; read-out: drug concentration required for 50% inhibition (IC50) of ATX activity in vitro. The format is biochemical. On the procedure: With the exception of the TOR proteins, the PIKK family members that bear functional catalytic domains phosphorylate substrates bearing the Ser/Thr-Gln motif (Tibbetts and Abraham, supra, 2000). […] Detergent extracts from the transfected cell populations were immunoprecipitated with α-HA antibody, and protein kinase assays were performed in buffer containing Mn2+, [γ-32P]ATP, and a GST fusion protein containing the first 70 amino acids of p53 (GST-p531-70) as the substrate (FIG. 1C). The GST-p531-70 protein was previously identified as a substrate for ATM and ATR in immune complex kinase assays (Tibbetts et al., Genes and Development 13:152-157 (1999)). […] Based on the ratios of 32P incorporation into substrate to levels of HA-tagged protein kinase, it can be estimated that the specific kinase activity of ATXWT was approximately 3.5-fold higher than that of ATMWT. As observed with ATM as the test kinase (Banin et al., Science 281:1674-1677 (1998); Canman et al., Science 281:1677-1679 (1998); Tibbetts et al., supra, 1999), phosphorylation of GST-p531-70 by ATXWT was nearly abolished by substitution of the Ser-15 residue in p53 with Ala (FIG. 1C, right panel). […] In contrast to the amino-terminal fragment, of p53, the PHAS-I/4E-BP1 protein, which is the prototypical substrate for mTOR, was poorly phosphorylated by HA-ATXWT in immune complex kinase assays (data not shown). […]

Series [5] has as its target T1, ATX. The experiment in a line: ATX kinase activity after drug treatment of intact U2OS cells, immunoprecipitation of endogenous ATX. The note with it: U2OS cells pretreated for 30 min, endogenous ATX immunoprecipitated with α-ATX Ab-2. More on the design: immunoprecipitation of endogenous ATX with α-ATX Ab-2; endogenous in cells; host or cells: U2OS osteosarcoma cells. In kind it is cell-based. The text has this:
The protein kinase activities of the mammalian PIKKs characteristically display a strong dependence on Mn2+ as a cofactor for the phosphotransferase reaction, and variable sensitivity to inhibition by wortmannin (Abraham, Genes and Development 15:2177-2196 (2001)). In our studies, the protein kinase activity of ATX was also dependent on the addition of Mn2+ the kinase reaction buffer (data not shown). […] Wortmannin is an irreversible inhibitor of PIKKs (Walker et al., Molecular Cells 6:909-919 (2000)) and can be used to assess the potency of this drug as an ATX inhibitor in intact cells. To this end, U2OS osteosarcoma cells were pretreated for 30 min with the indicated concentrations of wortmannin, followed by the preparation of cellular extracts for immunoprecipitation of endogenous ATX with α-ATX Ab-2. […]
For subcellular fractionations, U2OS cells were resuspended in cold homogenization buffer (25 mM Hepes, pH 7.4, 250 mM sucrose, 1 mM EGTA, 5 mM MgCl2, 50 mM NaF, 1 mM DTT, plus protease inhibitors) and Dounce homogenized on ice with 40 strokes in a Tefloncoated homogenizer. […] After separation by SDS-PAGE, the proteins were detected by autoradiography (for kinase reaction products) or by immunoblotting. Proteins immunoblotted with rabbit and mouse antibodies were detected with protein A-horseradish peroxidase (HRP) (Amersham), and sheep anti-mouse IgG-HRP (Amersham), respectively. […]
Target sequence in this assay (Q96Q15 whole entry, the tested form may be a part): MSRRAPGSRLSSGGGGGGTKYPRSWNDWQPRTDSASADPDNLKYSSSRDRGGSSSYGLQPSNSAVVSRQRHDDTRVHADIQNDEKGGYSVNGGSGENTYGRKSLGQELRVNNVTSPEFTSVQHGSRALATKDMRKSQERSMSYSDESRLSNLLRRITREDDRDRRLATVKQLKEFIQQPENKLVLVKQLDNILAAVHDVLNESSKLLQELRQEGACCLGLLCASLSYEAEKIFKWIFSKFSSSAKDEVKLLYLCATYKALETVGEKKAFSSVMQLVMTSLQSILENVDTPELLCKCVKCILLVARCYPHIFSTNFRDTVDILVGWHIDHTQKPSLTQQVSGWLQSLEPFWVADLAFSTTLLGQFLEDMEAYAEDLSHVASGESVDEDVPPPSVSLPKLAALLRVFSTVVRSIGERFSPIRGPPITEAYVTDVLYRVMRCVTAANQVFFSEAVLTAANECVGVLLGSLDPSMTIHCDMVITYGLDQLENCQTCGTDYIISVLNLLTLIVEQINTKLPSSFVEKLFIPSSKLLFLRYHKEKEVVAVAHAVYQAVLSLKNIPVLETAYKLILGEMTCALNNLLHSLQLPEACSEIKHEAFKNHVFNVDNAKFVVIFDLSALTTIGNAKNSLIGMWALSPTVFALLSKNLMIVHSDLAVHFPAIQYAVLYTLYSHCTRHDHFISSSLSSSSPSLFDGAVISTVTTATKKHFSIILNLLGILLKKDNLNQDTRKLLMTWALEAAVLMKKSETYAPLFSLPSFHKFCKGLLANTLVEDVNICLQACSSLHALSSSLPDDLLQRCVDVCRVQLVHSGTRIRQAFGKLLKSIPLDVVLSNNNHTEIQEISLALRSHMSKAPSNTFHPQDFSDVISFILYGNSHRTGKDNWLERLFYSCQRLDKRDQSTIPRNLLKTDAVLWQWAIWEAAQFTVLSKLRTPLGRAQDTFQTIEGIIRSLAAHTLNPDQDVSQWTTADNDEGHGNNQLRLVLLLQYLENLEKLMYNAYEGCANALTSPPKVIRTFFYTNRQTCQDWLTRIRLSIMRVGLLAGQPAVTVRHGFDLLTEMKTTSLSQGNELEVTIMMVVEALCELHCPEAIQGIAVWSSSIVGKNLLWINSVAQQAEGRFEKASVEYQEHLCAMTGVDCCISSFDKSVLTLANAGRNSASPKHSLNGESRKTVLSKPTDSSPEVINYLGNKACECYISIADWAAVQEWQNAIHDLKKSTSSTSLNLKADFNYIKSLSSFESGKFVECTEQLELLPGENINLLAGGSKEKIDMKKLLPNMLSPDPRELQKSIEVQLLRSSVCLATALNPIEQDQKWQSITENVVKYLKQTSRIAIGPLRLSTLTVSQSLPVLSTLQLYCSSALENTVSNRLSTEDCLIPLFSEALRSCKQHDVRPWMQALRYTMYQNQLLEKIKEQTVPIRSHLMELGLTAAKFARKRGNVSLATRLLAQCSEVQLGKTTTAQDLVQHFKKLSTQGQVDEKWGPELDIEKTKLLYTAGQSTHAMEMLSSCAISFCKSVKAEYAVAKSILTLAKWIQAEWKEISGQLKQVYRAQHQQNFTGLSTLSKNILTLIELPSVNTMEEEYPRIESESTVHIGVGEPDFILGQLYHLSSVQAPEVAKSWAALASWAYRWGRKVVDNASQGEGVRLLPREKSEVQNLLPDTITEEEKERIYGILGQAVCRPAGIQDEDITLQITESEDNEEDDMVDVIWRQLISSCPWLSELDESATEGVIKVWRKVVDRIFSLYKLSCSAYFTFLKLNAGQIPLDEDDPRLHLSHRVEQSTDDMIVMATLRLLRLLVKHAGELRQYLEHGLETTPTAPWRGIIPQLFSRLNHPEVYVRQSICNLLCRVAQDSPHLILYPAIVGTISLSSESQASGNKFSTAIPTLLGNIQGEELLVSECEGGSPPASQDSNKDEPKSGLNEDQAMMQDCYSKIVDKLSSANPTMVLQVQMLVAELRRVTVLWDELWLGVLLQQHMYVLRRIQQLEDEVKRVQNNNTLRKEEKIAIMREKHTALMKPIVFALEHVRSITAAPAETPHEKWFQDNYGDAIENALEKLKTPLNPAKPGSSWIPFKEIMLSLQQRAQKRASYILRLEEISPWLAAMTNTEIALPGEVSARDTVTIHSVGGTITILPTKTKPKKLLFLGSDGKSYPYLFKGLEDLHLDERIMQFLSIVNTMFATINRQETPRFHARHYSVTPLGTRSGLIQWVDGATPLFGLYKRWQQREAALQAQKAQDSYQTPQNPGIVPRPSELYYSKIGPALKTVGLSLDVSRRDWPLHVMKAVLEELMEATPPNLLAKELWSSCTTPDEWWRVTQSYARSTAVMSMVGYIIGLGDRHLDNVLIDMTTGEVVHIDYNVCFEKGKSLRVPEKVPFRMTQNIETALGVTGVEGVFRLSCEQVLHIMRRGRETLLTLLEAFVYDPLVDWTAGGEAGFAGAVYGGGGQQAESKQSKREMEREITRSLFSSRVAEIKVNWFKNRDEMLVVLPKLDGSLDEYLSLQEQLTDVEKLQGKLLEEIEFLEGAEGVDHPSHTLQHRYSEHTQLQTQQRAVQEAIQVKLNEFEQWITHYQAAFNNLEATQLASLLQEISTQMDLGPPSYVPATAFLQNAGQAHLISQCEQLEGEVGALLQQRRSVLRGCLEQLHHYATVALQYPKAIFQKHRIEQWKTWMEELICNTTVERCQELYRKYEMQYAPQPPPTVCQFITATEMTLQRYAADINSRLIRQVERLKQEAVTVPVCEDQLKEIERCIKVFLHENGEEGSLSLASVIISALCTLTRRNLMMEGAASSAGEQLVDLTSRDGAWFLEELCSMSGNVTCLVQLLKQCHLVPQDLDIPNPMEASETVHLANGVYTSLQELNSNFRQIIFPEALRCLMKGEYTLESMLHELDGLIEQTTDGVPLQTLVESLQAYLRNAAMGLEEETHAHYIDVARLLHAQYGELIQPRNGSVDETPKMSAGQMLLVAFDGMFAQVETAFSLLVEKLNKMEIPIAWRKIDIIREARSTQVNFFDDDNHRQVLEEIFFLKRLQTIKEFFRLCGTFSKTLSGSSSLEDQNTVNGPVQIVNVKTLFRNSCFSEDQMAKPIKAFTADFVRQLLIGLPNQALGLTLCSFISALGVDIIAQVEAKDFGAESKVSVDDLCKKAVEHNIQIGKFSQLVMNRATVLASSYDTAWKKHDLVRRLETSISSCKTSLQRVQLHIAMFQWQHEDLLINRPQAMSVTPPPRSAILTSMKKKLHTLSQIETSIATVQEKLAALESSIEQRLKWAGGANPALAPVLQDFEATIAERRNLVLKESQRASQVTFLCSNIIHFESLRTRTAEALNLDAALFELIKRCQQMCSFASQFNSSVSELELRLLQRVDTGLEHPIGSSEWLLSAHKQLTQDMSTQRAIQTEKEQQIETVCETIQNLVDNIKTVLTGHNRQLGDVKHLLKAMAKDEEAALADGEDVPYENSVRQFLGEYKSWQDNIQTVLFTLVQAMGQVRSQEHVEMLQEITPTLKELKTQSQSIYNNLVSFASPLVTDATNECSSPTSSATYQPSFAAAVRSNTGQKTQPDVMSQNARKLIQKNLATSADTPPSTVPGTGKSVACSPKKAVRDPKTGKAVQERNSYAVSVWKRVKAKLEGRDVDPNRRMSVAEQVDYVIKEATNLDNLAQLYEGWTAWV

For the compound “5′-GAGACAGGAGGGAGCTTGCT-3′ (all phosphorothioate, sugars by position and methylation of C not given here) [S oligonucleotide, reference compound]”, the “decrease of basal level of colony outgrowth (basal clonogenic activity)” value in series [1] came out at 25%. Moreover, in series [2], the “cell-cycle distribution after IR exposure” value was “accumulated in both G1 and G2/M phases and were cleared out of S phase”.

`O=c1[nH]cc(F)c(=O)[nH]1` [5-FU, 5-fluorouracil, reference compound]: in series [3], the “Ser-15 phosphorylation of p53” value is “not accompanied by an increase in Ser-15 phosphorylation” and the p53 expression entry is listed as “increased p53 expression to levels similar to those observed in UV-irradiated cells”.

For `COC[C@H]1OC(=O)c2coc3c2[C@@]1(C)C1=C(C3=O)[C@@H]2CCC(=O)[C@@]2(C)C[C@H]1OC(C)=O` [wortmannin], the IC50 in series [4] lay within 10 to 100 nM; in series [5], 1000 to 3000 nM.
